From patent US20040202652A1, “Methods and compositions for control of bone formation via modulation of leptin activity” (Baylor College of Medicine, priority 1999, published 2004)
“Also recorded” adds a separate entry of the source.

Assays:
[1] = 8 ng/hr dosage, systemic; cited from earlier work
[2] = serum leptin radioimmunoassay in centrally infused ob/ob mice; assay type: in vivo; details: after intracerebroventricular infusion, 8 ng/hr, 28 days
Procedure: The coexistence of a high bone mass phenotype and of hypogonadism was so exceptional that it raised the hypothesis that bone resorption might be defective in these mice. The increased urinary elimination of deoxypyridinoline crosslinks (Dpd), a biochemical marker of bone resorption (Eyre et al., 1988, Biochem 252, 494-500), in the ob/ob mice argued against this hypothesis (wild-type: 10.5±2.5 nM Dpd/mM creatinine; ob/ob: 24.0 b 4.0 nM Dpd/mM creatinine). Deoxypyridinoline crosslinks were measured in morning urines using the Pyrilinks-D immunoassay kit (Metra Biosystem). Creatinine values were used for standardization between samples (Creatinine kit, Metra Biosystem). Circulating concentration of […] and leptin were quantified by radioimmunoassays, using the third generation estradiol kit (Diagnostic system laboratories) and the mouse leptin RIA kit (Linco), respectively. […] Coadministration of an estrogen analog with an Ob or ObR inhibitor further increases the high bone mass phenotype.
Lastly, the issue of whether leptin binding to its hypothalamic receptor could correct the high bone mass phenotype of the ob/ob mice as it can rescue their obesity phenotype was addressed. […]

Tis11 and c-fos genes = assay: Northern blot analysis of immediate early gene expression in primary osteoblast cultures; assay type: cell-based, mice; details: 20 min treatment
Procedure: (§1) Expression of leptin in osteoblasts was studied in subconfluent primary osteoblast cultures from wild-type mice which were maintained for 4 days in 10% FBS mineralization medium and then subsequently switched to 0.5% for 2 days and replaced daily. Medium was replaced 2 hours before a 20 min treatment with 80 ng/mL leptin (Sigma) or 40 ng/mL Oncostatin M (R&D Diagnostics) or vehicle. RNA extractions were performed using Triazol (Gibco). Northern blots were performed with 15 μg of total RNA according to methods well known in the art.
The phosphorylation of Stat3, a downstream effector of leptin signaling in its target cells (Tartaglia et al., 1995, Cell 83, 1263-1271; Baumann et al., 1996, Proc Natl Acad Sci USA 93, 8374-8378; Ghilardi et al., 1996, Proc Nati Acad Sci USA 93, 6231-6235; Vaisse et al., 1996, Nat Genet 14, 95-97), was monitored, in addition to the expression of two immediate early genes whose transcription is increased following leptin treatment of target cells (Elmquist et al., 1997, Endocrinology 138, 839-842). As a positive control oncostatin-M that induces Stat3 phosphorylation and activates the expression of the same two immediate early genes in osteoblasts (Levy et al., 1996, Endocrinology 137, 1159-1165) was utilized. Western blot analysis was performed to determine Stat3 phosphorylation as follows. […]

ob/ob mice [3] = assay: intracerebroventricular infusion of leptin in ob/ob mice, bone histology and histomorphometry; assay type: in vivo; details: ovariectomized ob/ob mice, third ventricle, 8 ng/hr, 28 days, versus PBS
Procedure: (§2) Histologic analysis was performed on undecalcified sections stained with the von Kossa reagent and counterstained with Kernechtrot. In 3 and 6 month-old mice the presence of many more thick trabeculae in the bones of ob/ob mice compared to those of wild-type mice was observed (FIG. 1B). The cortical bone was not affected. Histomorphometric quantification according to standard techniques were performed (Parfitt et al., 1987, J Bone Min Res 2, 595-610) using the Osteomeasure Analysis System (Osteometrics, Atlanta). Statistical differences between groups (n=4 to 6) were assessed by Student's test. […] The functional consequences of this increase in bone mass were analyzed by comparing the biomechanical properties of long bones of 6 month-old ob/ob mice, wild-type mice, and wild-type mice that have been ovariectomized (wild-type-ovx) for 4 months to mimic the hypogonadic state of the ob/ob mice. An assay in which femora were tested to failure by three-point bending on a servo-hydrolic testing machine (Zwick GmbH & Co.) at a constant displacement rate of 10 mm/min was used to determine failure load, which is a measure of the strength of the bones. […] Analysis of the bones of the db/db mice that have an inactivating mutation of the leptin receptor was also performed (Tartaglia et al., 1995, Cell 83, 1263-1271). Like the ob/ob mice, the db/db mice are obese and hypogonadic. There was an increase in the number of trabeculae in both long bones and vertebrae similar to that observed in ob/ob mice (FIG. IE) resulting in a 3-fold increase in bone volume compared to wild-type mice (FIG. 1F).
The increase in bone mass could be due to an increase in osteoblastic bone formation, to a decrease in osteoclastic bone resorption, or to a combination of both abnormalities. To study osteoblast function in vivo, the rate of bone formation was quantified following double labeling with calcein, a marker of newly formed bone (FIG. 3A) as described (Ducy et al., 1999, Genes Dev 13, 1025-1036). Calcein was injected twice at 8 day intervals and animals were sacrificed two days later. In 3 month-old, and 6 month-old ob/ob mice there was a 70% and 60%, respectively, increase of the bone formation rate compared to the one of wild-type littermates (FIG. 3B).
Lastly, the issue of whether leptin binding to its hypothalamic receptor could correct the high bone mass phenotype of the ob/ob mice as it can rescue their obesity phenotype was addressed. To that end pumps delivering either PBS or leptin (8 ng/hr) in the third ventricle of ob/ob mice were inserted as follows. Animals were anesthetized with avertin and placed on a stereotaxic instrument (Stoelting). The calvaria was exposed and a 0.7 mm hole was drilled upon bregma. A 28-gauge cannula (Brain infusion kit U, Alza) was implanted into the third ventricle according to the following coordinates: midline, −0.3 AP, 3 mm ventral (0 point bregma). The cannula was secured to the skull with cyanoacrylate, and attached with Tygon tubing to an osmotic pump (Alza) placed in the dorsal subcutaneous space of the animal. The rate of delivery was 0.25:1/hour (8 ng/hr of leptin (Sigma)) or PBS for 28 days. The dosage has been previously shown to have no effect when administered systemically (Halaas et al., 1997, Proc Nati Acad Sci USA 94, 8878-8883). […]

[4] = test system: primary osteoblast cultures from wild-type mice; assay: long-term leptin treatment of primary osteoblast cultures (van Gieson and von Kossa staining); assay type: cell-based; details: 1.2 μg/mL for 5 days, versus control (vehicle) cultures
Procedure: To determine whether or not leptin could transduce its signal in osteoblasts, serum-starved primary osteoblasts isolated from wild-type mice were treated with leptin. Primary osteoblast cultures from calvaria of newborn wild-type or db/db mice were established as previously described (Ducy et al., 1999, Genes Dev 13, 1025-1036) and maintained in mineralization medium (αMEMI 0.1 mg/mL ascorbic acid; 5 mM […]) supplemented with 10% […]. Cultures of mutant cells were maintained in this medium for 15 days before analysis. Cultures derived from wild-type mice were maintained for 10 days in this medium then the percentage of serum was reduced to 0.5% and the medium supplemented with 1.2 μg/mL leptin (Sigma) or vehicle for 5 days.
Finally, the effect of a long-term leptin treatment of primary osteoblast cultures from wild-type mice on extracellular matrix synthesis and bone matrix mineralization was determined. The presence of a collagen-rich extracellular matrix and of mineralization nodules was assessed by whole-mount staining of the cultures by the van Gieson and von Kossa reagent, respectively. No difference was observed when assessing collagen synthesis or mineralization nodule formation between control and leptin-treated cultures (FIG. 5E).

Stat3 phosphorylation = assay: Western blot analysis of Stat3 phosphorylation in primary osteoblast cultures; assay type: cell-based, mice
Procedure: as §1
To determine whether or not leptin could transduce its signal in osteoblasts, serum-starved primary osteoblasts isolated from wild-type mice were treated with leptin. […]
The phosphorylation of Stat3, a downstream effector of leptin signaling in its target cells (Tartaglia et al., 1995, Cell 83, 1263-1271; Baumann et al., 1996, Proc Natl Acad Sci USA 93, 8374-8378; Ghilardi et al., 1996, Proc Nati Acad Sci USA 93, 6231-6235; Vaisse et al., 1996, Nat Genet 14, 95-97), was monitored, in addition to the expression of two immediate early genes whose transcription is increased following leptin treatment of target cells (Elmquist et al., 1997, Endocrinology 138, 839-842). […]

ob/ob mice [5] = assay: 17 β-estradiol pellet treatment to correct hypogonadism of ob/ob mice; assay type: in vivo
Procedure: as §2
Nevertheless, to address this point more thoroughly the hypogonadism of the ob/ob mice was exploited. Hypogonadism normally leads to an increase in osteoclasts number and in bone resorptive activity. Thus, if the osteoclasts of the ob/ob mice were functional, correcting the hypogonadism of these mice should decrease their rate of bone resorption by diminishing the number of osteoclasts and thereby should further increase their bone mass. On the other hand, if the osteoclasts of the ob/ob mice were not functioning properly, correcting their hypogonadism should not affect the severity of their high bone mass phenotype. To determine which of these two possibilities was correct, 17 β-estradiol or placebo pellets (Innovative Research of America) were implanted subcutaneously in 2-month-old female ob/ob mice to maintain a serum concentration of 250 pg/mL. These animals were analyzed after a 3-month treatment period.

[6] = end of the 3-month treatment period
[7] = female ob/ob mice, subcutaneous pellets, 3-month treatment

Row | Molecule | effect of the dosage when administered systemically [1] | leptin in the serum [2] | expression of Tis11 and c-fos (Tis11 and c-fos genes) | bone appearance, classical histology (ob/ob mice [3]) | bone formation rates (ob/ob mice [3]) | bone volume (ob/ob mice [3]) | number of trabeculae (ob/ob mice [3]) | trabeculae thickness (ob/ob mice [3]) | collagen synthesis (van Gieson staining) [4] | matrix mineralization / mineralization nodule formation (von Kossa staining) [4] | Stat3 phosphorylation, several doses (Stat3 phosphorylation; several doses, physiologic and supraphysiologic) | increase in bone volume, treated ob/ob mice compared to estradiol-treated wild-type mice (ob/ob mice [5]; [6]) [%] | increase in bone volume, treated ob/ob mice compared to untreated wild-type mice (ob/ob mice [5]; [6]) [fold] | correction of hypogonadism (aspect of uteri, levels of estradiol in blood) (ob/ob mice [5]; [7]) | high bone mass phenotype compared to placebo treated ob/ob mice (ob/ob mice [5]; [7]) | osteoclast number (ob/ob mice [5]; [7]) | correction of hypogonadism (aspect of uteri, levels of estradiol in blood) (ob/ob mice [5]; female ob/ob mice, subcutaneous pellets, 3-month treatment, listed as estradiol) | bone trabeculae, histological analysis of vertebrae (ob/ob mice [5]; treated wt and even more treated ob/ob mice) | Stat3 phosphorylation (Stat3 phosphorylation; primary osteoblasts from wild-type mice, serum-starved)
1 | leptin: endogenous polypeptide product of an ob gene; polypeptide hormone (Sigma) | no effect | No leptin | not | regained a normal appearance | significantly decreased | significantly decreased | fewer trabeculae | significantly decreased | No difference; also recorded: No effect | No difference; also recorded: No effect | failed to induce |  |  |  |  |  |  |  | 
2 | C[C@]12CC[C@@H]3c4ccc(O)cc4CC[C@H]3[C@@H]1CC[C@@H]2O [17 β-estradiol] |  |  |  |  |  |  |  |  |  |  |  | 50 | 3 | correction of the uterus atrophy | further increase of the high bone mass phenotype | normalization of the osteoclast number | corrected their hypogonadism | significant increase in bone trabeculae | 
3 | Oncostatin-M: positive control that induces Stat3 phosphorylation and immediate early gene expression in osteoblasts (protein, UniProt P13725 26-221, looked up) Oncostatin-M: AAIGSCSKEYRVLLGQLQKQTDLMQDTSRLLDPYIRIQGLDVPKLREHCRERPGAFPSEETLRGLGRRGFLQTLNATLGCVLHRLADLEQRLPKAQDLERSGLNIEDLEKLQMARPNILGLRNNIYCMAQLLDNSDTAEPTKAGRGASQPPTPTPASDAFQRKLEGCRFLHGYHRFMHSVGRVFSKWGESPNRSRR |  |  | quickly and transiently activated |  |  |  |  |  |  |  |  |  |  |  |  |  |  |  | did induce
